Target: T1, human DGAT2 (hDGAT2) (Homo sapiens, UniProt Q96PD7)
T1 construct: made in house; host or cells: Sf-9 insect cells (baculovirus), membrane fraction
T1 sequence (Q96PD7 1-388): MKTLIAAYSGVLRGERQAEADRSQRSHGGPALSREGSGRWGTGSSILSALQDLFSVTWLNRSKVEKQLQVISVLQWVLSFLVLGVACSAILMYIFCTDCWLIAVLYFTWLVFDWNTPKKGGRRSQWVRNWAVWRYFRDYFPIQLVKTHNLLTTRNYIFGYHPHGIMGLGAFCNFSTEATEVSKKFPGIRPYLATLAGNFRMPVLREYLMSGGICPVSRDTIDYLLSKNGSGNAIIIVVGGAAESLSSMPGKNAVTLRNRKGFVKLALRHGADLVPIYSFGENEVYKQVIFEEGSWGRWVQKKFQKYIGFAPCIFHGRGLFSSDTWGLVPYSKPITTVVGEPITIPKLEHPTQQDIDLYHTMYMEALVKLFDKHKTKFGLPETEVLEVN
Experiment: DGAT2 Enzymatic Activity Assay
Type: biochemical
Details: membrane prep of Sf-9 cells expressing hDGAT2; 13C18-triolein product by LC/MS/MS; 25 μM diolein, 5 μM 13C oleoyl-CoA, rt
Method: Sf-9 insect cells were maintained in Grace's insect cell culture medium with 10% heated-inactivated fetal bovine serum, 1% Pluronic F-68 and 0.14 μg/ml Kanamycine sulfate at 27° C. in a shaker incubator. After infection with untagged baculovirus expressing human DGAT2 (hDGAT2) at multiplicity of infection (MOI) 3 for 48 hours, cells were harvested. Cell pellets were suspended in buffer containing 10 mM Tris-HCl pH 7.5, 1 mM EDTA, 250 mM sucrose and Complete Protease Inhibitor Cocktail (Sigma Aldrich), and sonicated on ice. Cell debris were removed by centrifugation at 2000×g for 15 minutes. Membrane fractions were isolated by ultracentrifugation (100,000×g), resuspended in the same buffer, and frozen (−80° C.) for later use. The protein concentration was determined with the Pierce™ BCA Protein Assay Kit (Thermo Fisher Scientific).
LC/MS/MS analyses were performed using Thermal Fisher's LX4-TSQ Vantage system. This system consists of an Agilent binary high-performance liquid chromatography (HPLC) pump and a TSQ Vantage triple quadrupole MS/MS instrument. For each sample, 2 μL samples from the top organic layer of in-plate liquid-liquid extraction were injected onto a Thermo Betabasic C4 column (2.1 mm×20 mm, 5 μm particle size). The samples were then eluted using the following conditions; mobile phase: Isopropanol:acetonitrile/10 mM ammonium formate=50/35/15 (v/v/v), flow rate: 0.8 mL/min, temperature: 25° C. Data was acquired in positive mode using a heated electrospray ionization (HESI) interface. The operational parameters for the TSQ Vantage MS/MS instrument were a spray voltage of 3000 V, capillary temperature of 280° C., vaporizer temperature 400° C., sheath gas 45 arbitrary unit. Aux gas 10 arbitrary units. […] The peak area was integrated by Xcalibur Quan software. The ratio between the ^13C18 triolein generated in the reaction and spiked in internal standard ^13C21-triolein was used to generate percentage inhibition and IC50 values. Compound percentage inhibition was calculated by the following formula: Inhibition %=1−[(compound response−low control)/(high control−low control)]×100%.
DGAT2 activity was determined by measuring the amount of enzymatic product ^13C18-triolein (^13C-1,2,3-Tri(cis-9-octadecenoyl)glycerol) using the membrane prep mentioned above. The assay was carried out in ABgene 384-well assay plates in a final volume of 25 μL at rt.

| Structure (SMILES) | IC50 [nM] |
| --- | --- |
| CC1(NC(=O)c2cn3cc(Oc4ncc(Cl)cc4OCC(F)(F)F)ccc3n2)CS(=O)(=O)C1 [Example 1, 6-[[5-Chloro-3-(2,2,2-trifluoroethoxy)-2-pyridyl]oxy]-N-(3-methyl-1,1-dioxo-thietan-3-yl)imidazo[1,2-a]pyridine-2-carboxamide] | 5 |
| CCOc1cccnc1Oc1ccc2nc(C(=O)NC3(C)CCC(F)(F)CC3)cn2c1 [Example 3, N-(4,4-difluoro-1-methyl-cyclohexyl)-6-[(3-ethoxy-2-pyridyl)oxy]imidazo[1,2-a]pyridine-2-carboxamide] | 5.8 |
| O=C(NC1(CC(F)(F)F)CCS(=O)(=O)CC1)c1cn2cc(Oc3ncc(Cl)cc3OCC(F)(F)F)ccc2n1 [Example 5, 6-[[5-chloro-3-(2,2,2-trifluoroethoxy)-2-pyridyl]oxy]-N-[1,1-dioxo-4-(2,2,2-trifluoroethyl)thian-4-yl]imidazo[1,2-a]pyridine-2-carboxamide] | 36 |
| CC1(NC(=O)c2cn3cc(Oc4ncccc4OCC(F)(F)F)cc(F)c3n2)CCS(=O)(=O)CC1 [Example 7, 8-fluoro-N-(4-methyl-1,1-dioxo-thian-4-yl)-6-[[3-(2,2,2-trifluoroethoxy)-2-pyridyl]oxy]imidazo[1,2-a]pyridine-2-carboxamide] | 4.7 |
| CCOc1cc(Cl)cnc1Oc1ccc2nc(C(=O)NC3(C)CCS(=O)(=O)CC3)cn2c1C [Example 8, 6-[(5-chloro-3-ethoxy-2-pyridyl)oxy]-5-methyl-N-(4-methyl-1,1-dioxo-thian-4-yl)imidazo[1,2-a]pyridine-2-carboxamide] | 1.4 |
| Cc1cc2nc(C(=O)NC3(C)CCS(=O)(=O)CC3)cn2cc1Oc1ncc(Cl)cc1OCC1(F)CC1 [Example 10, 6-[[5-chloro-3-[(1-fluorocyclopropyl)methoxy]-2-pyridyl]oxy]-7-methyl-N-(4-methyl-1,1-dioxo-thian-4-yl)imidazo[1,2-a]pyridine-2-carboxamide] | 13 |
| CC1(NC(=O)c2cn3cc(Oc4ncc(Cl)cc4OCC(F)F)ccc3n2)CS(=O)(=O)C1 [Example 11, 6-[[5-chloro-3-(2,2-difluoroethoxy)-2-pyridyl]oxy]-N-(3-methyl-1,1-dioxo-thietan-3-yl)imidazo[1,2-a]pyridine-2-carboxamide] | 23 |
| Cc1cc2nc(C(=O)NC3(CC(F)(F)F)CCS(=O)(=O)CC3)cn2cc1Oc1ncc(Cl)cc1OCC(F)(F)F [Example 12, 6-[[5-chloro-3-(2,2,2-trifluoroethoxy)-2-pyridyl]oxy]-N-[1,1-dioxo-4-(2,2,2-trifluoroethyl)thian-4-yl]-7-methyl-imidazo[1,2-a]pyridine-2-carboxamide] | 5.6 |
| CC1(NC(=O)c2cn3cc(Oc4ncc(Cl)cc4OCC(F)(F)F)c(Cl)cc3n2)CCS(=O)(=O)CC1 [Example 13, 7-chloro-6-[5-chloro-3-(2,2,2-trifluoroethoxy)pyridine-2-yl]oxy-N-(4-methyl-1,1-dioxo-thian-4-yl)imidazo[1,2-a]pyridine-2-carboxamide] | 4.3 |
| CC1(NC(=O)c2cn3cc(Oc4ncccc4OCC(F)(F)F)ccc3n2)CCS(=O)(=O)CC1 [Example 14, N-(4-methyl-1,1-dioxo-thian-4-yl)-6-[[3-(2,2,2-trifluoroethoxy)-2-pyridyl]oxy]imidazo[1,2-a]pyridine-2-carboxamide] | 5.3 |
| Cc1c(Oc2ncc(Cl)cc2OCC(F)(F)F)cc(F)c2nc(C(=O)NC3(C)CCS(=O)(=O)CC3)cn12 [Example 15, 6-[[5-chloro-3-(2,2,2-trifluoroethoxy)-2-pyridyl]oxy]-8-fluoro-5-methyl-N-(4-methyl-1,1-dioxo-thian-4-yl)imidazo[1,2-a]pyridine-2-carboxamide] | 11 |
| O=C(N[C@H]1CCCC(F)(F)[C@@H]1O)c1cn2cc(Oc3ncc(F)cc3OCC(F)(F)F)ccc2n1 [Example 16, N-[(1S,2R)-3,3-difluoro-2-hydroxy-cyclohexyl]-6-[[5-fluoro-3-(2,2,2-trifluoroethoxy)-2-pyridyl]oxy]imidazo[1,2-a]pyridine-2-carboxamide] | 4.5 |
| Cc1c(Oc2ncc(Cl)cc2OCC(F)(F)F)ccc2nc(C(=O)NC3(C)CCS(=O)(=O)CC3)cn12 [Example 17] | 1.4 |
| CC(F)(F)COc1cc(Cl)cnc1Oc1ccc2nc(C(=O)NC3(C)CCS(=O)(=O)CC3)cn2c1 [Example 18, 6-[[5-chloro-3-(2,2-difluoropropoxy)-2-pyridyl]oxy]-N-(4-methyl-1,1-dioxo-thian-4-yl)imidazo[1,2-a]pyridine-2-carboxamide] | 2 |
| Cc1cc2nc(C(=O)NC3(C)CCS(=O)(=O)CC3)cn2cc1Oc1ncc(F)cc1OCC(C)(F)F [Example 19, 6-[[3-(2,2-difluoropropoxy)-5-fluoro-2-pyridyl]oxy]-7-methyl-N-(4-methyl-1,1-dioxo-thian-4-yl)imidazo[1,2-a]pyridine-2-carboxamide] | 7.7 |
| Cc1cc2nc(C(=O)NC3(C)CCS(=O)(=O)CC3)cn2cc1Oc1nccnc1OCC(F)(F)F [Example 20, 7-methyl-N-(4-methyl-1,1-dioxidotetrahydro-2H-thiopyran-4-yl)-6-((3-(2,2,2-trifluoroethoxy)pyrazin-2-yl)oxy)imidazo[1,2-a]pyridine-2-carboxamide] | 17.3 |
| CC1(NC(=O)c2cn3cc(Oc4ncc(F)cc4OCC(F)(F)F)c(F)cc3n2)CCS(=O)(=O)CC1 [Example 21, 7-fluoro-6-[[5-fluoro-3-(2,2,2-trifluoroethoxy)-2-pyridyl]oxy]-N-(4-methyl-1,1-dioxo-thian-4-yl)imidazo[1,2-a]pyridine-2-carboxamide] | 1.8 |
| CCOc1cccnc1Oc1ccc2nc(C(=O)N[C@H]3CCCC[C@@H]3O)cn2c1 [Example 22, 6-[(3-ethoxy-2-pyridyl)oxy]-N-[(1S,2S)-2-hydroxycyclohexyl]imidazo [1,2-a]pyridine-2-carboxamide] | 3.5 |
| CCOc1cccnc1Oc1ccc2nc(C(=O)NC3(C)CC(F)(F)C3)cn2c1 [Example 23, N-(3,3-difluoro-1-methyl-cyclobutyl)-6-[(3-ethoxy-2-pyridyl)oxy]imidazo[1,2-a]pyridine-2-carboxamide] | 31 |
| Cc1cc(Oc2ncccc2OCC(F)(F)F)cn2cc(C(=O)NC3(C)CCS(=O)(=O)CC3)nc12 [Example 24, 8-methyl-N-(4-methyl-1,1-dioxo-thian-4-yl)-6-[[3-(2,2,2-trifluoroethoxy)-2-pyridyl]oxy]imidazo[1,2-a]pyridine-2-carboxamide] | 117 |
| Cc1cc2nc(C(=O)NC3(C)CC(F)(F)C3)cn2cc1Oc1ncc(F)cc1OCC(F)F [Example 25, 6-[[3-(2,2-difluoroethoxy)-5-fluoro-2-pyridyl]oxy]-N-(3,3-difluoro-1-methyl-cyclobutyl)-7-methyl-imidazo[1,2-a]pyridine-2-carboxamide] | 3.8 |
| CCOc1cccnc1Oc1ccc2nc(C(=O)N[C@H]3CC[C@](OC)(C(F)(F)F)CC3)cn2c1 [Example 26, 6-[(3-ethoxy-2-pyridyl)oxy]-N-[4-methoxy-4-(trifluoromethyl)cyclohexyl] imidazo[1,2-a]pyridine-2-carboxamide] | 10 |
| Cc1c(Oc2ncc(F)cc2OCC(F)F)ccc2nc(C(=O)NC3(C)CC(F)(F)C3)cn12 [Example 28, 6-[[3-(2,2-difluoroethoxy)-5-fluoro-2-pyridyl]oxy]-N-(3,3-difluoro-1-methyl-cyclobutyl)-5-methyl-imidazo[1,2-a]pyridine-2-carboxamide] | 59 |
| Cc1cc2nc(C(=O)NC3(C)CCS(=O)(=O)CC3)cn2cc1Oc1ncc(F)cc1OCC(F)(F)F [Example 29, 6-[[5-fluoro-3-(2,2,2-trifluoroethoxy)-2-pyridyl]oxy]-7-methyl-N-(4-methyl-1,1-dioxo-thian-4-yl)imidazo[1,2-a]pyridine-2-carboxamide] | 13 |

Source: patent US20260176267A1, “PREPARATION OF IMIDAZOPYRIDINE AND IMIDAZOPYRIDAZINE DERIVATIVES AS NOVEL DIACYLGLYCERIDE O-ACYLTRANSFERASE 2 INHIBITORS” (Merck Sharp & Dohme LLC, priority 2022, published 2026)
